Measurements: ChEMBL document CHEMBL3832069, “DailyMed|setid=b463cd5f-299a-45f8-a1b3-c9e7fe271955 | INDOMETHACIN- indomethacin capsule|PD-Rx Pharmaceuticals, Inc”

Key:
Type in all cases: ADME, organism-based
[1] = (§1) Pharmacokinetic parameters for Indomethacin evaluated after single oral administration of 25 or 50 mg Indomethacin capsules.; set-up: dose 25 mg, dose 50 mg, route oral; settings: human, in vivo, dosed compound id 57, dosed compound name INDOMETHACIN, regimen Single dose, tissue Plasma
Homo sapiens = assay: as §1; set-up: dose 25 mg, dose 50 mg, route oral; settings: in vivo, po, dosed compound id 57, dosed compound name INDOMETHACIN, regimen Single dose, tissue Plasma
[2] = Pharmacokinetic parameters for Indomethacin evaluated after oral administration of Indomethacin capsules.; settings: human, in vivo, dosed compound id 57, dosed compound name INDOMETHACIN, tissue Plasma

COc1ccc2c(c1)c(CC(=O)O)c(C)n2C(=O)c1ccc(Cl)cc1 [INDOMETHACIN]
Cmax ([1]; po): 1000 ng/mL
Tmax ([1]; dose 25 mg, route oral): 2 h
Cmax (Homo sapiens): 2000 ng/mL
bioavailability [2]: 100%
half-life [2]: 4.5 h
fraction unbound ([2]; read-out: Protein binding): 0.01
